Several values for one entry are separate records, joined by “and”; a condition that tells them apart may be missing. Identical values can stand only once. Entries after “also recorded” stand apart in the source; their conditions may differ.
Legend:
[1] = test system: Pseudomonas aeruginosa PA14; assay: Pyocyanin assay in Pseudomonas aeruginosa; format: cell-based; settings: PA14, 16 h, read-out: IC50 Pyocyanin
Description: 1.2.2 Pyocyanin assay in Pseudomonas aeruginosa
Inhibition of pyocyanin biosynthesis of compounds was measured spectrophotometrically as previously described.[2] Pseudomonas aeruginosa PA14 was grown in rich medium for 16 h under agitation with and without compound. Pyocyanin was extracted from cultures with chloroform, then re-extracted with 0.2 M HCl and quantified photometrically (520 nm). IC50 values were determined from dose-response curves of compounds using at least six different concentrations and fitting with non-linear regression analysis (OriginPro 2017–2020, Originlab Corporation). […]

[2] = test system: Salmonella typhimurium TA98 and TA100; assay: Mini-AMES; format: cell-based; settings: @62.25 µg mL^−1 (147 × 10^−6 M); also in presence of rat liver S9 fractions
Description: P2X4 receptor (human P2RX4 gene) expressed in HEK293 cells >30
TRPA1 channel (human TRPA1 gene) expressed in CHO cells >30
TRPC6 channel (human TRPC6 gene) expressed in HEK293 cells >30
TRPV1 channel (human TRPV1 gene) expressed in HEK293 cells >30
TRPV4 channel (human TRPV4 gene) expressed in CHO cells >30
1.4.4 Pharmacokinetic and off-target functional assays (Cyprotex)
Compound 24 was assayed at Cyprotex in functional assays for interference with important off-targets as well as important pharmacokinetic parameters. With the exception of plasma protein binding, a dose-response relationship was studied in order to calculate IC50 values.
Table S10. Information on in vitro ADMET assays performed at Cyprotex. […]
Approximately ten million bacteria were exposed in triplicate to 24 (1.9, 3.9, 7.8, 15.6, 31.2, 62.5 µg/mL), a negative control (vehicle) and positive controls for 90 min in medium containing a low concentration of histidine (sufficient for about 2 doublings.) The cultures were then diluted into indicator medium lacking histidine, and dispensed into 48 wells of 384-well plates (micro-plate format, MPF). […] The wells showing growth were counted and compared to the vehicle control. […]
The maximum tolerated dose of 24 in NMRI mice was conducted and analyzed at CRO ATRC Aurigon Toxicological Research Center Ltd, Hungary. […]

[3] = molecular target: T1, BK (KCa1.1/β1) calcium-activated potassium channel (Homo sapiens, UniProt Q12791); assay: Ion channel profiling at Charles River: BK; format: cell-based; settings: expressed in CHO cells; read-out: ESTIMATED IC50
T1 construct: host or cells: CHO cells
Description: (§1) 1.4.3 Ion Channel Profiling at Charles River
(§2) Table S9. Compound 24 was tested against the following ion channels at Charles River Laboratories. […]
BK (KCa1.1/β1) calcium-activated potassium channel (human >30
KCNMA1 and KCNMB1 genes) expressed in CHO cells
(§3) FASTPatch Assay IK (KCa3.1) calcium-activated potassium channel (human KCNN4 >30 gene) expressed in CHO cells […]
(§4) FLIPR Assay expressed in HEK293 cells
(§5) GABAA α5/β3/γ2 ionotropic receptor (human GABRA5, GABRB3, >30 and GABRG2 genes, expressed in HEK293 cells

[4] = molecular target: T2, IK (KCa3.1) calcium-activated potassium channel (Homo sapiens, UniProt O15554); assay: Ion channel profiling at Charles River: IK; format: cell-based; settings: expressed in CHO cells; read-out: ESTIMATED IC50
T2 construct: host or cells: CHO cells
Description: as §1, §2, §3, §4, §5

[5] = molecular target: T3, Potassium Channel hERG (human) (Homo sapiens, UniProt Q12809); assay: Cerep panel binding assay; settings: 10 µM, [3H] Dofetilide
T3 construct: purchased Eurofins Pharma Discovery (Cerep) SafetyScreen44 Panel, ITEM P270
Description: (§6) 1.4 Safety Pharmacology of Compound 24
(§7) 1.4.1 Cerep panel (Eurofins)
(§8) Compound 24 was further profiled for its off-target interactions against a panel of 44 targets. The
(§9) screening was done by Eurofins Pharma Discovery within the SafetyScreen44 Panel (Cerep, ITEM
(§10) P270). In all assays binding/functional inhibition was determined at 10 µM.
(§11) Table S6. […]
Potassium Channel hERG (human) [3H] […]

[6] = test system: Na+ channel (site 2); assay: Cerep panel binding assay; design: species or system rat; settings: 10 µM, antagonist radioligand
Description: as §6, §7, §8, §9, §10, §11

[7] = molecular target: T4, V1a (h) (Homo sapiens, UniProt P37288); assay: Cerep panel binding assay; settings: agonist radioligand
T4 construct: purchased Eurofins Pharma Discovery (Cerep) SafetyScreen44 Panel, ITEM P270
Description: as §6, §7, §8, §9, §10, §11
V1a (h) (agonist radioligand) 7.6

T3 sequence (Q12809 whole entry): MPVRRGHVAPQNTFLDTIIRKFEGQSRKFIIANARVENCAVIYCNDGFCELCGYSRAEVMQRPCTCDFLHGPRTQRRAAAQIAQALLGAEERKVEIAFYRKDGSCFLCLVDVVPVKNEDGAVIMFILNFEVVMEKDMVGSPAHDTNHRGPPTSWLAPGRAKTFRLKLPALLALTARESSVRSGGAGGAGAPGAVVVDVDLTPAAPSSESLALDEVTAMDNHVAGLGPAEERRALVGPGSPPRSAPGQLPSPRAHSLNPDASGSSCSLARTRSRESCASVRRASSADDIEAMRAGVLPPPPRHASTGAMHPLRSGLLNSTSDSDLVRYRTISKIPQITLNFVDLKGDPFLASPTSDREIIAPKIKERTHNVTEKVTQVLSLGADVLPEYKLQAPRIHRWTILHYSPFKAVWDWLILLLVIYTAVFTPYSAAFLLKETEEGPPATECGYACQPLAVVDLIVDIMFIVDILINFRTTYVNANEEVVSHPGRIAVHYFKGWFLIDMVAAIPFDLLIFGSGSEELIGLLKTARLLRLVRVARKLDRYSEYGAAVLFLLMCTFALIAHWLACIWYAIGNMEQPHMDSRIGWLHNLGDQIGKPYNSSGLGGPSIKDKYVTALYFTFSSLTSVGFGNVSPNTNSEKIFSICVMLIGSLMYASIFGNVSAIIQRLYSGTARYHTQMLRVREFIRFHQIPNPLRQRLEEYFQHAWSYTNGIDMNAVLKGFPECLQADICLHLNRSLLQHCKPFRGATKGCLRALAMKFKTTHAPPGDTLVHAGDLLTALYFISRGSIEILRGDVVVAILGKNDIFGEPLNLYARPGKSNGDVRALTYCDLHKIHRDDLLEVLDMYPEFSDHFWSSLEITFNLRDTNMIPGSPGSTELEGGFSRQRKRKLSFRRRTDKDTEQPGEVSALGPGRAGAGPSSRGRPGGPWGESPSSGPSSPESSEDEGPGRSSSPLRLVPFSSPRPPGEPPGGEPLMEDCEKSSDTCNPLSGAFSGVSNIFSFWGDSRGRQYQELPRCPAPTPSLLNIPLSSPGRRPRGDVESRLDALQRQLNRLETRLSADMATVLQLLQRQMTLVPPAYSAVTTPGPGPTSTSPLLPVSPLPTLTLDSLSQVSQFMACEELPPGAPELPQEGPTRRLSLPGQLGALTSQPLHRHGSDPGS
T4 sequence (P37288 whole entry): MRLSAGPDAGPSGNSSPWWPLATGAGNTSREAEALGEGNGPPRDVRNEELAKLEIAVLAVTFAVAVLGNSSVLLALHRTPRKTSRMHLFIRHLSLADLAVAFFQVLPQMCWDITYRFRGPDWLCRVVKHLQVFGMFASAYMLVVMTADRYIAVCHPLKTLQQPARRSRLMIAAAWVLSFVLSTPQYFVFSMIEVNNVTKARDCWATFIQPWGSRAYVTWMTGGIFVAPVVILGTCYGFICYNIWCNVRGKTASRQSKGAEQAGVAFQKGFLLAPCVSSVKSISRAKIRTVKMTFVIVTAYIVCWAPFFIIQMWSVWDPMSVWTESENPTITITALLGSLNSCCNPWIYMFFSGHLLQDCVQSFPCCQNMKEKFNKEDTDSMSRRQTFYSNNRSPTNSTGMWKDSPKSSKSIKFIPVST
T1 sequence (Q12791 whole entry): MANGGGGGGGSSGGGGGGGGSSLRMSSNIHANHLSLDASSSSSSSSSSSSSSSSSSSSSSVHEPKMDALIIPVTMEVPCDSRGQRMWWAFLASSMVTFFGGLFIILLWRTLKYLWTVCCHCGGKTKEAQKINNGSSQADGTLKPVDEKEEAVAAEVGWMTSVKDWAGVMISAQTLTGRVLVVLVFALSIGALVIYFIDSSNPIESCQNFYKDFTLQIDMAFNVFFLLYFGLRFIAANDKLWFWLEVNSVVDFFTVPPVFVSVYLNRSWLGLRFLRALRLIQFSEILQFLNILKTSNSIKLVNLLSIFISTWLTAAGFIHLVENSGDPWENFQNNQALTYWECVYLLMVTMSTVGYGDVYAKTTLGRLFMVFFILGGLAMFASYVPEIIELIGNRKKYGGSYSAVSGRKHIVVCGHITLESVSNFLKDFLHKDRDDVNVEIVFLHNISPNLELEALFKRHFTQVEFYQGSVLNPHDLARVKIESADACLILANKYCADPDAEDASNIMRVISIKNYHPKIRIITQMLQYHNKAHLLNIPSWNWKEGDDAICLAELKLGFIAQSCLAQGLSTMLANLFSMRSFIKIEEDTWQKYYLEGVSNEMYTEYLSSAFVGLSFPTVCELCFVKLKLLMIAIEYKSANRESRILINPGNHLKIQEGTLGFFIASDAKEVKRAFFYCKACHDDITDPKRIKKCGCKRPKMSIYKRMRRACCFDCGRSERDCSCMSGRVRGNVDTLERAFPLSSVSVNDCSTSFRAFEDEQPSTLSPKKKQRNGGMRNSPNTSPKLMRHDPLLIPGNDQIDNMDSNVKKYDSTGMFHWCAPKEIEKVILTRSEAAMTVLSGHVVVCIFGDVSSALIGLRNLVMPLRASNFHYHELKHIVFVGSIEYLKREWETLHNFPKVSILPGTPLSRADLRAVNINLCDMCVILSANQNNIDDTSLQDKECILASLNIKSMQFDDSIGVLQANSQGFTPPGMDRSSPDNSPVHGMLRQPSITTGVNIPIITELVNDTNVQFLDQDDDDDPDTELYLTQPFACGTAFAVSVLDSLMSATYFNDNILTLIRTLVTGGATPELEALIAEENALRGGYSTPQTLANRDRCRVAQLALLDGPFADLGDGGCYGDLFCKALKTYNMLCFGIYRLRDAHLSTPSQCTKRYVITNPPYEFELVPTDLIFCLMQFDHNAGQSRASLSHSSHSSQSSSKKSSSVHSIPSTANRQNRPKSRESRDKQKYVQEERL
T1 sequence (Q16558 whole entry partner): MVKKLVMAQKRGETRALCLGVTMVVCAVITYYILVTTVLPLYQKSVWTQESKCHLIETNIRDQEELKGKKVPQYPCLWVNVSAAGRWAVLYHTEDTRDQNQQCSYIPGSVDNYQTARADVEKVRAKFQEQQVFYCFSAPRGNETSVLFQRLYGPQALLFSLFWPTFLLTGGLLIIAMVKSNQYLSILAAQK

CC(C)Oc1ccc(-c2ncc(CNc3ccnc(C(F)(F)F)c3)cn2)cc1Cl [Compound 24]
IC50 [1]: 0.245 ± 0.04 µM | Mini‐AMES genotoxicity [2]: no genotoxicity; also recorded: Negative @62.25 µg mL^−1 (147 × 10^−6 M) | IC50 [3]: > 30 µM | IC50 [4]: > 30 µM | BINDING (%) [5]: 73.1% and > 50% | BINDING (%) [6]: 57.2% and > 50% | inhibition at 10 µM [7]: 7.6%

Source: article PMC9929129, “Towards Translation of PqsR Inverse Agonists: From In Vitro Efficacy Optimization to In Vivo Proof‐of‐Principle” (Advanced Science, 2023)
